{"source": "patent US20070148722A1", "about": "“Method for determining the concentration of thrombin inhibitors” (priority 1999, published 2007)", "origin": "cited, not measured here", "molecular_target": "meizothrombin (Homo sapiens, UniProt P00734)", "settings": "theoretical background statement; affinity to atypical intermediate meizothrombin"}
{"substance": "hirudin", "values": [{"measurement": "Ki", "result": "> 0.1", "unit": "nM"}]}
